# Measurements from PubChem BioAssay AID1963839 (Molecular Pharmacology Branch, DTP, NCI, 2024).
# Tested on: 817829-284-R-J1-PDC complex spheroid viability
# Test: Anticancer human tumor 817829-284-R-J1-PDC patient-derived colon adenocarcinoma cell line growth inhibition [POLQ]
# Details: for IC50: curve of first compound; for viability, T/C: stronger effect = lower value
# Experimental: Multicellular complex tumor spheroid response to Polymerase (POL) inhibitors (novobiocin, ART-558, RP6685) in combination with a variety of drugs and investigational agents in selected tumor cell lines
# The POL inhibitors (novobiocin, ART-558, and RP6685) were evaluated both individually and in combination with standard of care and investigational anticancer small molecules within a complex spheroid model of solid tumors. . Complex spheroids include a stromal component modeled by human endothelial cells (HUVEC) and fibroblasts modeled by human mesenchymal stem cells (MSCs). The concentration ranges selected for each drug and investigational agent were based upon clinically achievable concentrations if the clinical Cmax of the agent was known.
# Compounds. The drugs and investigational agents: novobiocin (NSC847541), ART-558 (NSC835418), RP-6685 (NSC848927), peposertib (NSC802822), ceralasertib (NSC780249), elimusertib (NSC800525), camonsertib (NSC841442), AZD-1390 (NSC803789), olaparib (NSC753686), talazoparib (NSC767125), rucaparib (NSC756644), sotorasib (NSC818433), MRTX-1133 (NSC836407), SN-38 (NSC673596), topotecan (NSC609699), epotoside (NSC141540), doxorubicin (NSC123127), gemcitabine (NSC613327), 5-fluorouracil (NSC19893), paclitaxel (NSC125973), vemurafenib (NSC761431), MSA-2 (NSC828583), SN-011 (NSC837082), adavosertib (NSC754352), prexasertib (NSC758257), carboplatin (NSC241240) and oxaliplatin (NSC266046), were obtained from the National Cancer Institute (NCI) Developmental Therapeutics Program Chemical Repository (21). The FDA-approved anticancer drug set is available from the Developmental Therapeutics Program at https://dtp.cancer.gov/organization/dscb/obtaining/. […] The stock solutions were prepared in dimethyl sulfoxide (DMSO, Sigma-Aldrich, St. Louis, MO, cat. D2650), except for the platinum compounds which were prepared in saline (Quality Biological, Gaithersburg, MD, cat. 114-055-101), at 800-fold the tested concentration and stored at -70 degrees C prior to their use. All drugs and investigational agents were tested over a range starting from a high concentration at or near the clinical Cmax and decreasing in half-log increments. If the clinical Cmax for an agent had not been determined, the highest concentration tested was 10 microM, except for SN-38, which was tested at a high concentration of 1 microM.
# Cell Culture. All cells were maintained in an incubator at 37 degrees C and 5% CO2 with 95% humidity. The PDC lines were cultured according to standard operating procedures established by the NCI PDMR (https://pdmr.cancer.gov). Table 3 of the manuscript, lists the cell lines along with the number of the three cell types plated to form the mct-spheroids and media for tumor cell growth. After thawing, all PDC lines, except 997537-175-T-J1-PDC and 415267-285-R-J2-PDC, were cultured in Matrigel-coated flasks prepared with a working solution of 1X Ham's F-12 nutrient mix, without supplementation (Thermo Fisher Scientific, cat. 11765054), 100 U/mL penicillin-streptomycin (Thermo Fisher Scientific, cat. 15140122), and 2.5% Matrigel (Corning Inc., Corning, NY, cat. 354248) for the first three passages. The two PDC lines 997537-175-T-J1-PDC and 415267-285-R-J2-PDC were cultured on uncoated flasks. The 857933-349-R-J2-PDC line was cultured in 6C/Colon 1B media containing advanced DMEM/F-12 (Thermo Fisher Scientific, cat. 12634028), 10 mM HEPES (Thermo Fisher Scientific, cat. 15630080), 1X GlutaMAX supplement (Thermo Fisher Scientific, cat. 35050061), 0.1 mg/mL primocin (InvivoGen, San Diego, CA, cat. ant-pm-2), 10% defined fetal bovine serum, heat inactivated (HyClone Laboratories Inc., Logan, UT, cat. SH30070.03HI), 50% L-WRN conditioned media (ATCC, cat. CRL-3276), 1.25 mM N-Acetyl-L-cysteine (Sigma-Aldrich, cat. A9165), 10 mM nicotinamide (Sigma-Aldrich, cat. N0636), 1X B-27 supplement (Thermo Fisher Scientific, cat. 17504044), 1X N-2 supplement (Thermo Fisher Scientific, cat. […]
# [1] = second compound 0.0316 µM, first compound 0.0316 µM
# [2] = second compound 0.0316 µM, first compound 0.1 µM
# [3] = second compound 0.0316 µM, first compound 0.316 µM
# [4] = second compound 0.0316 µM, first compound 1 µM
# [5] = second compound 0.0316 µM, first compound 3.16 µM
# [6] = second compound 0.0316 µM, first compound 10 µM
# [7] = second compound 0.1 µM, first compound 0.0316 µM
# [8] = second compound 0.1 µM, first compound 0.1 µM
# [9] = second compound 0.1 µM, first compound 0.316 µM
# [10] = second compound 0.1 µM, first compound 1 µM
# [11] = second compound 0.1 µM, first compound 3.16 µM
# [12] = second compound 0.1 µM, first compound 10 µM
# [13] = second compound 0.316 µM, first compound 0.0316 µM
# [14] = second compound 0.316 µM, first compound 0.1 µM
# [15] = second compound 0.316 µM, first compound 0.316 µM
# [16] = second compound 0.316 µM, first compound 1 µM
# [17] = second compound 0.316 µM, first compound 3.16 µM
# [18] = second compound 0.316 µM, first compound 10 µM
# [19] = second compound 1 µM, first compound 0.0316 µM
# [20] = second compound 1 µM, first compound 0.1 µM
# [21] = second compound 1 µM, first compound 0.316 µM
# [22] = second compound 1 µM, first compound 1 µM
# [23] = second compound 1 µM, first compound 3.16 µM
# [24] = second compound 1 µM, first compound 10 µM
# [25] = second compound 3.16 µM, first compound 0.0316 µM
# [26] = second compound 3.16 µM, first compound 0.1 µM
# [27] = second compound 3.16 µM, first compound 0.316 µM
# [28] = second compound 3.16 µM, first compound 1 µM
# [29] = second compound 3.16 µM, first compound 3.16 µM
# [30] = second compound 3.16 µM, first compound 10 µM
# [31] = second compound 10 µM, first compound 0.0316 µM
# [32] = second compound 10 µM, first compound 0.1 µM
# [33] = second compound 10 µM, first compound 0.316 µM
# [34] = second compound 10 µM, first compound 1 µM
# [35] = second compound 10 µM, first compound 3.16 µM
# [36] = second compound 10 µM, first compound 10 µM
# 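Further: spheroids exposed to compounds for 7 days.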
# 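Wherever viability, T/C is given: 100% = DMSO vehicle-treated spheroids.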
structure (smiles),measurement,setting,value
COc1cc(C2c3cc4c(cc3C(OC3OC5COC(C)OC5C(O)C3O)C3COC(=O)C23)OCO4)cc(OC)c1O (centres undefined) + COC1C(OC(N)=O)C(O)C(Oc2ccc3c(O)c(NC(=O)c4ccc(O)c(CC=C(C)C)c4)c(=O)oc3c2C)OC1(C)C,IC50,second compound 0.0316 µM,< 31.6 nM
same,IC50,second compound 0.1 µM,62.2 nM
same,IC50,second compound 0.316 µM,38.7 nM
same,IC50,second compound 1 µM,77.8 nM
same,IC50,second compound 3.16 µM,74.9 nM
same,IC50,second compound 10 µM,61.4 nM
same,"viability, T/C",[1],47.9%
same,"viability, T/C",[2],31.3%
same,"viability, T/C",[3],16.2%
same,"viability, T/C",[4],14.4%
same,"viability, T/C",[5],11.2%
same,"viability, T/C",[6],5.8%
same,"viability, T/C",[7],74.1%
same,"viability, T/C",[8],31.2%
same,"viability, T/C",[9],19.5%
same,"viability, T/C",[10],19.1%
same,"viability, T/C",[11],11.8%
same,"viability, T/C",[12],6.51%
same,"viability, T/C",[13],53.6%
same,"viability, T/C",[14],34.5%
same,"viability, T/C",[15],15.2%
same,"viability, T/C",[16],15.6%
same,"viability, T/C",[17],12.6%
same,"viability, T/C",[18],6.15%
same,"viability, T/C",[19],79.2%
same,"viability, T/C",[20],42.2%
same,"viability, T/C",[21],15.8%
same,"viability, T/C",[22],16.3%
same,"viability, T/C",[23],11.7%
same,"viability, T/C",[24],6.63%
same,"viability, T/C",[25],83.7%
same,"viability, T/C",[26],38.8%
same,"viability, T/C",[27],18.1%
same,"viability, T/C",[28],19.1%
same,"viability, T/C",[29],13.6%
same,"viability, T/C",[30],6.38%
same,"viability, T/C",[31],68.8%
same,"viability, T/C",[32],36.6%
same,"viability, T/C",[33],17.9%
same,"viability, T/C",[34],20.1%
same,"viability, T/C",[35],11.6%
same,"viability, T/C",[36],6.29%
O=c1[nH]cc(F)c(=O)[nH]1 + COC1C(OC(N)=O)C(O)C(Oc2ccc3c(O)c(NC(=O)c4ccc(O)c(CC=C(C)C)c4)c(=O)oc3c2C)OC1(C)C,IC50,second compound 0.0316 µM,2400 nM
same,IC50,second compound 0.1 µM,8960 nM
same,IC50,second compound 0.316 µM,3420 nM
same,IC50,second compound 1 µM,2920 nM
same,IC50,second compound 3.16 µM,2130 nM
same,IC50,second compound 10 µM,8930 nM
same,"viability, T/C",[1],97.6%
same,"viability, T/C",[2],144%
same,"viability, T/C",[3],102%
same,"viability, T/C",[4],68.8%
same,"viability, T/C",[5],42.6%
same,"viability, T/C",[6],43.1%
same,"viability, T/C",[7],90.7%
same,"viability, T/C",[8],94%
same,"viability, T/C",[9],92.5%
same,"viability, T/C",[10],77.6%
same,"viability, T/C",[11],50.2%
same,"viability, T/C",[12],50%
same,"viability, T/C",[13],80%
same,"viability, T/C",[14],84.2%
same,"viability, T/C",[15],70%
same,"viability, T/C",[16],70.2%
same,"viability, T/C",[17],51.1%
same,"viability, T/C",[18],26.6%
same,"viability, T/C",[19],98.3%
same,"viability, T/C",[20],86.8%
same,"viability, T/C",[21],95.1%
same,"viability, T/C",[22],86.5%
same,"viability, T/C",[23],47.2%
same,"viability, T/C",[24],47.3%
same,"viability, T/C",[25],128%
same,"viability, T/C",[26],114%
same,"viability, T/C",[27],108%
same,"viability, T/C",[28],57.8%
same,"viability, T/C",[29],50.4%
same,"viability, T/C",[30],39.9%
same,"viability, T/C",[31],107%
same,"viability, T/C",[32],101%
same,"viability, T/C",[33],77.9%
same,"viability, T/C",[34],84.3%
same,"viability, T/C",[35],62.3%
same,"viability, T/C",[36],47.4%
